Assay results published in patent US20230148605A1, “APPLICATION OF GERANIOL IN PREPARATION OF FORMULATION FOR PROMOTING SYNTHESIS OF PSEUDOMONAS AERUGINOSA 3OC12-HSL SIGNAL MOLECULES” (priority 2021, published 2023).

Legend:
Format in all cases: cell-based
[1] = system: key genes in the Pseudomonas aeruginosa quorum sensing system and virulent genes regulated thereby; experiment: Influence of geraniol on expression of key quorum sensing genes and regulated virulent genes (real-time fluorescent quantitative PCR); settings: low concentration of geraniol (0.313 to 2.5 μL/mL), PAO1; concluded from the experiments
[2] = system: Pseudomonas aeruginosa PAO1; experiment: Influence of geraniol on Pseudomonas aeruginosa PAO1 growth (growth curve, OD600, Bioscreen C)
Experimental: An LB medium and geraniol were respectively added to test tubes, joined with the PAO1 bacterial suspension in the exponential growth phase, to make total volumes all reach 10 mL, so that PAO1 bacterial concentrations were all 10^6 CFU/mL, and concentrations of geraniol were respectively 0 μL/mL (control), 0.313 μL/mL, 0.625 μL/mL, 1.25 μL/mL, and 2.5 μL/mL. Samples from the experimental groups were respectively added to a honeycomb culture plate dedicated to an automatic growth curve analyzer (Bioscreen C), which has each well added with 350 μL culture medium; and each experimental group has three parallel experiments. The honeycomb culture plate was placed in the automatic growth curve analyzer, for shaking culture at 37° C. for 3 days, with OD600 measured every hour. Taking OD600 as an ordinate and culture time as an abscissa, a growth curve of PAO1 under an action of geraniol was drawn to study influence of geraniol on PAO1 growth.

[3] = system: key genes in the Pseudomonas aeruginosa quorum sensing system and virulent genes regulated thereby; experiment: Influence of geraniol on expression of key quorum sensing genes and regulated virulent genes (real-time fluorescent quantitative PCR); settings: 1.25 μL/mL geraniol, 5 h, PAO1
Experimental: The PAO1 bacterial suspension in a logarithmic growth phase was added to 50 mL sterile LB liquid medium to make a final concentration of the bacterial solution reach 10^6 CFU/mL. Geraniol was added to make a final concentration become 0 μL/mL (three biological replicates in a control group were respectively named A1, A2 and A3) and 1.25 μL/mL (three biological replicates in an experimental group were respectively named B1, B2 and B3); the respective groups were cultured at 37° C. and 180 rpm for 5 h, centrifuged to collect Bacteria, and then snap-frozen at −80° C. for later use.
Total bacterial RNA was extracted with a kit of Trizol (Thermo Company). After extraction, purity of RNA was detected with an ultra-micro spectrophotometer (Implen, Munich, Germany). An A260/A280 value of each RNA sample should be between 1.8 and 2.0. Reverse transcription and real-time fluorescent quantitative PCR amplification were performed with the PrimeScript RT Master Mix kit (Takara, Dalian, China) and the ETC 811 PCR instrument (Beijing Eastwin Life Sciences, Inc.). A q-PCR reaction system adopted Takara's SYBR Premix Ex TaqII (Tli RNaseH Plus) (Code No. RR820A); the PCR program was pre-denaturation at 95° C. for 30 s; denaturation at 95° C. for 5 s, annealing at 60° C. for 34 s, 40 loops; according to the 10 gene sequences already published on the GenBank website, primers for q-PCR were designed with Primer Premier 5.0 software, and meanwhile, the 16SrRNA gene was used as an internal reference gene.
Table 1 Genes and primer sequences thereof used in real-time fluorescent quantitative PCR

What does the source list for `CC(C)=CCC/C(C)=C/CO` [geraniol, Geraniol]?
synthesis of 3OC12-HSL signal molecules [1]: significantly promote synthesis; growth of PAO1 cells (OD600 growth curve) ([2]; geraniol 0.313, 0.625, 1.25 and 2.5 μL/mL, LB, 37° C., 3 days): slightly inhibit growth; concentration dependence of effect on growth of PAO1 cells ([2]; geraniol 0.313 to 2.5 μL/mL): concentration-dependent inhibitory effect; antibacterial activity compared with other geraniol groups ([2]; geraniol 2.5 μL/mL): highest antibacterial activity; bacterial proliferation rate in the logarithmic growth phase ([2]; geraniol 2.5 μL/mL, versus other groups): significantly lower than other groups; expression level of pelF [3]: not significantly down-regulated; expression level of pslB [3]: not significantly down-regulated; expression level of the signal molecule synthase encoding gene rhl (rhl system) [3]: does not change significantly; expression level of toxA [3]: not significantly down-regulated; expression level of virulent gene chiC [3]: significantly down-regulated; expression level of virulent gene lasA [3]: significantly down-regulated; expression level of virulent gene lasB [3]: significantly down-regulated; expression level of virulent gene phzM [3]: significantly down-regulated; expression of lasI (signal molecule synthase gene, las system) [3]: up-regulated; expression of lasR (signal molecule receptor protein gene, las system) [3]: down-regulated; expression of pqsA (signal molecule synthase gene, pqs system) [3]: down-regulated; expression of pqsR (signal molecule receptor protein gene, pqs system) [3]: up-regulated; expression of rhlR (signal molecule receptor protein gene, rhl system) [3]: down-regulated
